From patent US20260049072A1, “HETEROCYCLIC COMPOUND FOR INDUCING DEGRADATION OF MUTANT KRAS PROTEIN” (Astellas Pharma Inc., priority 2022, published 2026)
Like-named read-outs stand apart in the source and are kept apart here.

Tests used:
[1] = system: phosphorylation of ERK (Thr202/Tyr204); assay: ERK phosphorylation inhibitory activity, cell ELISA, PA-TU-8902; assay type: cell-based; settings: Homo sapiens, read-out: IC50 (ERK phosphorylation inhibition)
Description: Test Example 2: Evaluation of ERK Phosphorylation Inhibitory Activity on Human KRAS G12V Mutant-Positive Pancreatic Cancer Line PA-TU-8902
The ERK phosphorylation inhibitory activities of subject compounds were evaluated by measuring phosphorylation of the 202th threonine (Thr202) and the 204th tyrosine (Tyr204) of ERK located downstream of the KRAS signal by cell ELISA.
PA-TU-8902 cells were seeded at 36 µL/well on a 384-well plate (from Greiner bio-one) to give 5.0×10^3 cells per well. The cell culture conditions were the same conditions as in Test Example 1-1.
The next day, the subject compounds (9 points having final concentrations in the range of 3 μM to 0.3 nM), trametinib (MEK inhibitor) of a final concentration of 300 nM as a positive control and DMSO, which was the solvent for the subject compounds, as a negative control were diluted 100-fold with a fresh medium and were each added at 4 μL per well, followed by culturing for 24 hours. After culturing, a 30% glyoxal solution (40% glyoxal [from Nacalai Tesque] was diluted with PBS) was quickly added at 30 μL per well, and the plate was allowed to stand for an hour and 30 minutes at room temperature to thus immobilize the cells. Then, the plate was centrifuged (110×g, seven seconds, hereinafter centrifugation was performed under the same conditions unless otherwise specified) to remove the supernatant, and 0.1% Triton X-100-containing PBS was added at 20 μL per well. After allowing the plate to stand for 10 minutes at room temperature, the supernatant was removed by centrifugation, and the same operation was further repeated. Next, 0.5% SDS-containing PBS was added at 20 μL per well. The plate was allowed to stand at room temperature for 30 minutes and was then centrifuged to remove the supernatant. Subsequently, a blocking solution (Intercept Blocking Buffer) was added at 20 μL per well, and the plate was allowed to stand for an hour at room temperature. The supernatant was removed by centrifugation, and an ERK (Thr202/Tyr204) phosphorylation antibody (Phospho-p44/42 MAPK (Erk 1/2) (Thr202/Tyr204) (D13.14.4E) XP Rabbit mAb; from Cell Signaling Technology) diluted 2,500-fold with the blocking solution was added at 15 μL per well as a primary antibody. The plate was allowed to stand at 4° C. overnight.
The next day, the plate was centrifuged to remove the supernatant, and 0.05% Tween-20-containing PBS (from Thermo Scientific; 20×PBS Tween-20 was diluted 20-fold with ion exchange water and used) was added at 50 μL per well. The supernatant was removed by centrifugation to thus wash each well. The washing was performed three times in total. After washing, an anti-rabbit IgG antibody diluted 1,000-fold with the blocking solution was added at 15 μL per well as a secondary antibody, and the plate was allowed to stand for an hour at room temperature. The plate was centrifuged to remove the supernatant, and each well was washed three times with 0.05% Tween-20-containing PBS in the same manner as after the primary antibody reaction. Centrifugation after the third washing was performed at 171×g for 17 seconds. After removing the supernatant, the plate was dried as it was with air at room temperature for three hours or more, and the 800-nm fluorescent signals were measured with Aerius.
With the signaling value at the time of addition of DMSO taken as 0% inhibition and with the signaling value at the time of addition of 300 nM trametinib taken as 100% inhibition, the 50% inhibition values (IC50) were calculated by Sigmoid-Emax model nonlinear regression analysis.

AsPC-1 cells = assay: Non-anchorage-dependent cell growth inhibition (spheroid 3D culture), AsPC-1; assay type: cell-based; settings: Homo sapiens, ASPC1, 144 h, read-out: AsPC-1 IC50
Description: (§1) Test Example 3: Evaluation of Non-Anchorage-Dependent Cell Growth Inhibitory Activity on Human KRAS G12V Mutant-Positive Pancreatic Cancer Line PA-TU-8902, Human KRAS G12D Mutant-Positive Pancreatic Cancer Line AsPC-1 or Human KRAS G12C Mutant-Positive Pancreatic Cancer Line MIA PaCa-2
(§2) The non-anchorage-dependent cell growth inhibitory activities of subject compounds were evaluated by spheroid 3D cell culture.
(§3) PA-TU-8902 cells, AsPC-1 cells or MIA PaCa-2 cells (RIKEN BRC, RCB2094) were seeded at 36 µL/well on a low-cell-adhesive round bottom 384-well plate (Prime Surface: from Sumitomo Bakelite) to give 5×10^2 cells per well. The PA-TU-8902 cells were under the same conditions as in Test Example 1-1, and the AsPC-1 cells were under the same conditions as in Test Example 1-2. For the MIA PaCa-2 cells, RPMI-1640 medium containing 10% fetal bovine serum was used in the presence of 5% CO2 at 37° C.
(§4) The next day, the subject compounds (6-9 points having final concentrations in the range of 3 μM to 0.3 nM) and DMSO, which was the solvent for the subject compounds, as a negative control were diluted 100-fold with a fresh medium and were each added at 4 μL per well. After culturing in the presence of 5% CO2 at 37° C. for six days, CellTiter-Glo 2.0 (from Promega) was added at 20 μL per well. After stirring with a plate mixer (from FINEPCR) at normal temperature for an hour, the luminescent signals were measured with ARVO X3 (from PerkinElmer).
(§5) With the signaling value in treatment with DMSO taken as 0% inhibition and with the signaling value in the medium alone without cells taken as 100% inhibition, the 50% inhibition values (IC50) were calculated by Sigmoid-Emax model nonlinear regression analysis.

MIA PaCa-2 cells = assay: Non-anchorage-dependent cell growth inhibition (spheroid 3D culture), MIA PaCa-2; assay type: cell-based; settings: Homo sapiens, MIA PaCa-2, 144 h, read-out: MIA PaCa-2 IC50
Description: as §1, §2, §3, §4, §5

PA-TU-8902 cells = assay: Non-anchorage-dependent cell growth inhibition (spheroid 3D culture), PA-TU-8902; assay type: cell-based, human; settings: Homo sapiens, PaTu 8902, 144 h, read-out: PA-TU-8902 IC50
Summary of the method: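 Human pancreatic lines (PA-TU-8902 KRAS G12V, AsPC-1 G12D, MIA PaCa-2 G12C) grown as spheroids at 5×10^2 cells/well in low-adhesion round-bottom plates; MIA PaCa-2 in RPMI-1640 with 10% FBS. Compounds added next day (6-9 points, 3 μM to 0.3 nM final) for six days at 37 °C, 5% CO2. CellTiter-Glo luminescence, IC50 by Sigmoid-Emax regression versus DMSO and cell-free controls.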

[2] = PaTu 8902, PA-TU-8902 cells, 24 hours, 100% = 300 nM trametinib
[3] = KRAS G12D mutant-positive, 3D spheroid, six days, CellTiter-Glo 2.0
[4] = KRAS G12C mutant-positive, 3D spheroid, six days, CellTiter-Glo 2.0
[5] = KRAS G12V mutant-positive, 3D spheroid, six days, CellTiter-Glo 2.0

| IC50 [1, 2] | IC50 (AsPC-1 cells; [3]) | IC50 (MIA PaCa-2 cells; [4]) | Compound | IC50 (PA-TU-8902 cells; [5]) | IC50 ([1]; PaTu 8902, 24 h) | IC50 (AsPC-1 cells) | IC50 (MIA PaCa-2 cells) | IC50 (PA-TU-8902 cells) |
| --- | --- | --- | --- | --- | --- | --- | --- | --- |
| 10 nM | 19 nM | 10 nM | CO[C@@H](C)COc1cc(OC2CN(C(=O)N3CC(CN(C)C)C3)C2)c2cc(C3CC3)c(-c3c(C)c(F)cc4[nH]ncc34)c(OCc3ccc(-c4cn([C@H](C(=O)N5C[C@H](O)C[C@H]5C(=O)N[C@@H](CO)c5ccc(-c6scnc6C)cc5)C(C)C)nn4)cc3)c2n1 (atropisomer, axis not shown; (M)) [Example 14, (4R)-1-[(2S)-2-(4-{4-[({(7M)-6-cyclopropyl-4-[(1-{3-[(dimethylamino)methyl]azetidine-1-carbonyl}azetidin-3-yl)oxy]-7-(6-fluoro-5-methyl-1H-indazol-4-yl)-2-[(2S)-2-methoxypropoxy]quinolin-8-yl}oxy)methyl]phenyl}-1H-1,2,3-triazol-1-yl)-3-methylbutanoyl]-4-hydroxy-N-{(1R)-2-hydroxy-1-[4-(4-methyl-1,3-thiazol-5-yl)phenyl]ethyl}-L-prolinamide] | 47 nM |  |  |  |  |
| 24 nM | 29 nM | 23 nM | CO[C@@H](C)COc1cc(OC2CN(C(=O)CCCN(C)C)C2)c2cc(C3CC3)c(-c3c(C)c(F)cc4[nH]ncc34)c(OCc3ccc(-c4cn([C@H](C(=O)N5C[C@H](O)C[C@H]5C(=O)N[C@@H](CO)c5ccc(-n6cncn6)cc5)C(C)C)nn4)cc3)c2n1 (atropisomer, axis not shown; (M)) [Example 41, (4R)-1-[(2S)-2-(4-{4-[({(7M)-6-cyclopropyl-4-({1-[4-(dimethylamino)butanoyl]azetidin-3-yl}oxy)-7-(6-fluoro-5-methyl-1H-indazol-4-yl)-2-[(2S)-2-methoxypropoxy]quinolin-8-yl}oxy)methyl]phenyl}-1H-1,2,3-triazol-1-yl)-3-methylbutanoyl]-4-hydroxy-N-{(1R)-2-hydroxy-1-[4-(1H-1,2,4-triazol-1-yl)phenyl]ethyl}-L-prolinamide] | 52 nM |  |  |  |  |
| 42 nM | 126 nM | 6 nM | Cc1ncsc1-c1ccc([C@H](CO)NC(=O)[C@@H]2C[C@@H](O)CN2C(=O)[C@H](C(C)C)n2cc(-c3ccc(COc4c(-c5c(C)c(F)cc6[nH]ncc56)c(C5CC5)cc5c(NC6CN(c7ncccn7)C6)nc(OC6CCOCC6)nc45)cc3)nn2)cc1 [Example 15, (4R)-1-[(2S)-2-{4-[4-({[(7M)-6-cyclopropyl-7-(6-fluoro-5-methyl-1H-indazol-4-yl)-2-[(oxan-4-yl)oxy]-4-{[1-(pyrimidin-2-yl)azetidin-3-yl]amino}quinazolin-8-yl]oxy}methyl)phenyl]-1H-1,2,3-triazol-1-yl}-3-methylbutanoyl]-4-hydroxy-N-{(1R)-2-hydroxy-1-[4-(4-methyl-1,3-thiazol-5-yl)phenyl]ethyl}-L-prolinamide] | 161 nM |  |  |  |  |
| 15 nM | 25 nM | 5 nM | Cc1ncsc1-c1ccc([C@H](CO)NC(=O)[C@@H]2C[C@@H](O)CN2C(=O)[C@H](C(C)C)n2cc(-c3ccc(COc4c(-c5c(C)c(F)cc6[nH]ncc56)c(C5CC5)cc5c(NCc6cccnc6)nc(OC6CCOCC6)nc45)cc3)nn2)cc1 [Example 29] | 63 nM |  |  |  |  |
| 11 nM | 10 nM | 5 nM | Cc1ncsc1-c1ccc([C@H](CO)NC(=O)[C@@H]2C[C@@H](O)CN2C(=O)[C@H](C(C)C)n2cc(-c3ccc(COc4c(-c5c(C)c(F)cc6[nH]ncc56)c(C5CC5)cc5c(N6CC[C@H]6C(N)=O)nc(OC6CCOCC6)nc45)cc3)nn2)cc1 [Example 35] | 32 nM |  |  |  |  |
|  |  |  | CO[C@@H](C)COc1nc(OC2CN(C(=O)NCCN(C)C)C2)c2cc(C3CC3)c(-c3c(C)c(F)cc4[nH]ncc34)c(OCc3ccc(C(=O)N[C@H](C(=O)N4C[C@H](O)C[C@H]4C(=O)N[C@@H](CO)c4ccc(-c5scnc5C)cc4)C(C)C)cc3)c2n1 [Example 40, N-{4-[({(7M)-6-cyclopropyl-4-[(1-{[2-(dimethylamino)ethyl]carbamoyl}azetidin-3-yl)oxy]-7-(6-fluoro-5-methyl-1H-indazol-4-yl)-2-[(2S)-2-methoxypropoxy]quinazolin-8-yl}oxy)methyl]benzoyl}-L-valyl-(4R)-4-hydroxy-N-{(1R)-2-hydroxy-1-[4-(4-methyl-1,3-thiazol-5-yl)phenyl]ethyl}-L-prolinamide] |  | 53 nM | 62 nM | 20 nM | 100 nM |
